# Test results reported in patent US9518052B2, “Pyrazolopyridines and pyrazolopyrimidines” (Pfizer Inc., priority 2014, dated 2016).
# pIC50: −log10 of the molar value. Where a name gives a salt, the structure may show the parent alone.
# Columns and labels:
# Type in all cases: biochemical
# Details in all cases: Caliper assay at 1 mM ATP
# [1] = biological target: JAK1 (Homo sapiens (Human), UniProt P23458); assay: JAK Caliper Enzyme Assay at 1 mM ATP (JAK1)
# Experimental: (§1) JAK Caliper Enzyme Assay at 1 mM ATP
# (§2) Test article was solubilized in dimethyl sulfoxide (DMSO) to a stock concentration of 30 mM. An 11-point half log dilution series was created in DMSO with a top concentration of 600 μM. […] The compound plates were diluted 1 to 60 resulting in a top final assay compound concentration of 10 μM and a 2% DMSO concentration.
# (§3) Test article and assay controls were added to a 384-well plate. Reaction mixtures contained 20 mM HEPES, pH 7.4, 10 mM magnesium chloride, 0.01% bovine serum albumin (BSA), 0.0005% Tween 20, 1 mM ATP and 1 μM peptide substrate. […] Enzyme concentrations and incubation times were optimized for each new enzyme preps and were modified slightly over time to ensure 20%-30% phosphorylation. The assays were stopped with a final concentration of 10 mM EDTA, 0.1% Coating Reagent and 100 mM HEPES, pH=7.4. The assay plates were placed on a Caliper Life Science Lab Chip 3000 (LC3000) instrument, and each well was sampled using appropriate separation conditions to measure the unphosphorylated and phosphorylated peptide.
# [2] = biological target: JAK3 (Homo sapiens (Human), UniProt P52333); assay: JAK Caliper Enzyme Assay at 1 mM ATP (JAK3)
# Chain of JAK3 (P52333 whole entry, species assumed): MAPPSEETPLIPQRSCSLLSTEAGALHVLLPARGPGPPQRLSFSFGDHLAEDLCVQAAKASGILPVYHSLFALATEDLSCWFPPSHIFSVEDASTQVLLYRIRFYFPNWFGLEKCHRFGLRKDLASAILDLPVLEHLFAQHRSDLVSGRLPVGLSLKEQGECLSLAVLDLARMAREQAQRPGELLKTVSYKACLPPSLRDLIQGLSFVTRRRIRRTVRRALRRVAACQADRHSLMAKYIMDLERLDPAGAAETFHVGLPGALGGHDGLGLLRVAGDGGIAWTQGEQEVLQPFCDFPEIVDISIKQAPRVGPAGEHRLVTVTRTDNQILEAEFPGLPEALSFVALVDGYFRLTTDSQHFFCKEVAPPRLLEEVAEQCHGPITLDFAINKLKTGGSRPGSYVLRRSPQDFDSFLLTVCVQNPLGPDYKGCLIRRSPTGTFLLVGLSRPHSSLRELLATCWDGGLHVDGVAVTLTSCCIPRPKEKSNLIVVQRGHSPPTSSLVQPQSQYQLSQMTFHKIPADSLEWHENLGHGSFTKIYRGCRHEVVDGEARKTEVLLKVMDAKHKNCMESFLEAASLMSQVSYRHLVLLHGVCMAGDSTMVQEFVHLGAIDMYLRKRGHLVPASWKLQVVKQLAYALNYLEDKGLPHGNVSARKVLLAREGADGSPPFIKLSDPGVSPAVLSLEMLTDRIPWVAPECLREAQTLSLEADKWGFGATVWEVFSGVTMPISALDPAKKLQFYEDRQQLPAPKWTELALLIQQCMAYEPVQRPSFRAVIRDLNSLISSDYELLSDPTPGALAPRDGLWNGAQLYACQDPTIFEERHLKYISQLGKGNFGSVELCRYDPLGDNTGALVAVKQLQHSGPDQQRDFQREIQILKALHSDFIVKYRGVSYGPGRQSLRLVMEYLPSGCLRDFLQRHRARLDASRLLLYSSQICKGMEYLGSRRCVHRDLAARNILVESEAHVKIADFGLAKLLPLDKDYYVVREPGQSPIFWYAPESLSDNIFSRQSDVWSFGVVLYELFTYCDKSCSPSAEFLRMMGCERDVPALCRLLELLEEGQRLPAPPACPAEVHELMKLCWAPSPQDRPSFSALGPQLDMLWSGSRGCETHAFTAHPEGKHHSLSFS
# Experimental: as §1, §2, §3
# [3] = biological target: TYK2 (Homo sapiens (Human), UniProt P29597); assay: JAK Caliper Enzyme Assay at 1 mM ATP (TYK2)
# Chain of TYK2 (P29597 whole entry, species assumed): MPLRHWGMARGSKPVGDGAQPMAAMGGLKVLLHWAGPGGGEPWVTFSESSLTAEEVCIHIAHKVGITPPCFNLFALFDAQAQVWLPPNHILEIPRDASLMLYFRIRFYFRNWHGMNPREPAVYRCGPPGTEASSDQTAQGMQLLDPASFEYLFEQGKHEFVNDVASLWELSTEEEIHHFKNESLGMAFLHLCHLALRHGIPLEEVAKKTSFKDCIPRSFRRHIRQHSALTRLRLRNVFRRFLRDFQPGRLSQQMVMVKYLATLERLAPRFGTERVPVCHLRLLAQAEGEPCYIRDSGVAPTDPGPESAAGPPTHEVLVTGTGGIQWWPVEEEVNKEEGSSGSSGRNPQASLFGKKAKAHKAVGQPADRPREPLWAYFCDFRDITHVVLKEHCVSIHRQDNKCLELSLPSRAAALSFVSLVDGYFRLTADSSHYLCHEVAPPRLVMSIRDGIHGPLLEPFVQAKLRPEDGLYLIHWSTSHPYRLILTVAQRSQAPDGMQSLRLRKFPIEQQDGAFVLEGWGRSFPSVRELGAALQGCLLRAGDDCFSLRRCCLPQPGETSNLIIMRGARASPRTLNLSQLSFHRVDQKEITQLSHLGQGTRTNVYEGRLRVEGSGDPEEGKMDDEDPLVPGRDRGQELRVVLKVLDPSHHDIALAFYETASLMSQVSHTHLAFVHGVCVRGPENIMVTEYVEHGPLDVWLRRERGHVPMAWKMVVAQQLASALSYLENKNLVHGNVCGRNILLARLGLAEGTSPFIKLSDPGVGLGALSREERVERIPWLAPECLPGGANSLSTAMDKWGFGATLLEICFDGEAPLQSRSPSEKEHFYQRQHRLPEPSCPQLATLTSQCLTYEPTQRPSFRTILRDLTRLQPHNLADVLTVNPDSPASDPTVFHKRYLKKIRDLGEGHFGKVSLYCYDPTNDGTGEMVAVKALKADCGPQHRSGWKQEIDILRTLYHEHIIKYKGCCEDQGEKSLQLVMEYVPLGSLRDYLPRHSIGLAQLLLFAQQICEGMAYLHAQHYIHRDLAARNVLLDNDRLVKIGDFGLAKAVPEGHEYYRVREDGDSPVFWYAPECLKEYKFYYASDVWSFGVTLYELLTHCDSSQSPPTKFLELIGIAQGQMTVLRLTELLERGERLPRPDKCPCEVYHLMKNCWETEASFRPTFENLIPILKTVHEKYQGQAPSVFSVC
# Experimental: as §1, §2, §3
# Chain of JAK1 (P23458 whole entry, species assumed): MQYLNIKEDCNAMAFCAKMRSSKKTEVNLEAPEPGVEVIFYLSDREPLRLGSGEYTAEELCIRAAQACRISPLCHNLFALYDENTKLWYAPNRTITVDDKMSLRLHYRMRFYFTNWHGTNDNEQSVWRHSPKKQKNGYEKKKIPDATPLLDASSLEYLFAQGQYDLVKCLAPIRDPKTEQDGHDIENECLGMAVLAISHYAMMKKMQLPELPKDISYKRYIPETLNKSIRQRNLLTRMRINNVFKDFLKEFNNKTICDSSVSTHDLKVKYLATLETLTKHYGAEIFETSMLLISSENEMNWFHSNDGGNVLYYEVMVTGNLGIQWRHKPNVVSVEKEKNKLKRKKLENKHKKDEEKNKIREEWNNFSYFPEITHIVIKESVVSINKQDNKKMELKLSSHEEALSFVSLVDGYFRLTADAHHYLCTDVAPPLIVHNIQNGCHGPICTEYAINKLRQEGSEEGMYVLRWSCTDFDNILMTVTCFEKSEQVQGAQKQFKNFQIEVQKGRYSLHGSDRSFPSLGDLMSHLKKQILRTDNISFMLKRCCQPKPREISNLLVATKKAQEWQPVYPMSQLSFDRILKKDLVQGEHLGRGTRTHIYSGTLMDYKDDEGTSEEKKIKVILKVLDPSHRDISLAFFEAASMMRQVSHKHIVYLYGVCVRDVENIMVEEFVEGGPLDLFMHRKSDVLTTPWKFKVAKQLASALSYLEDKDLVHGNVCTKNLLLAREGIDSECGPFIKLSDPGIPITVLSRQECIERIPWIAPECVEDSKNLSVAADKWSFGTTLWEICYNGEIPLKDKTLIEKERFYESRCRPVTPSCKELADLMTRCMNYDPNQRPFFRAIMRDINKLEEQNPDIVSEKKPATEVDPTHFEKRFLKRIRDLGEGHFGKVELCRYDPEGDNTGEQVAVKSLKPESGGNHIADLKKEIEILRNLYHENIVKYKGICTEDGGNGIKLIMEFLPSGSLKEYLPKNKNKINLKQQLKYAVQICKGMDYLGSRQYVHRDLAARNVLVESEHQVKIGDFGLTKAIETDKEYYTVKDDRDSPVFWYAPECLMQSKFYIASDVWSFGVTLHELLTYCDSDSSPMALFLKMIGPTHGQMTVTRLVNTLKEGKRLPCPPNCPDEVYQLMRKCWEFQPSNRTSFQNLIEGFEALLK
Compound,pIC50 [1],pIC50 [2],pIC50 [3]
"CCc1cc(O)c(F)cc1-c1cc2[nH]nc(C(=O)NC)c2c(NCCc2ccc(O)cc2)n1 [Example 4, 6-(2-ethyl-5-fluoro-4-hydroxyphenyl)-4-{[2-(4-hydroxyphenyl)ethyl]amino}-N-methyl-1H-pyrazolo[4,3-c]pyridine-3-carboxamide]",8.77,7.58,7.82
"CCc1cc(O)c(F)cc1-c1cc2[nH]nc(C(=O)NC)c2c(NCc2ccc(O)cc2N(C)S(C)(=O)=O)n1 [Example 29, 6-(2-Ethyl-5-fluoro-4-hydroxyphenyl)-4-({4-hydroxy-2-[methyl(methylsulfonyl)amino]benzyl}amino)-N-methyl-1H-pyrazolo[4,3-c]pyridine-3-carboxamide]",8.82,7.48,7.72
"CNC(=O)c1n[nH]c2cc(-c3cc(F)c(O)cc3C3CC3)nc(NCc3ccccc3N(C)S(C)(=O)=O)c12 [Example 37, 6-(2-cyclopropyl-5-fluoro-4-hydroxyphenyl)-N-methyl-4-({2-[methyl(methyl-sulfonyl)amino]benzyl}amino)-1H-pyrazolo[4,3-c]pyridine-3-carboxamide]",8.30,7.28,6.77
"CN(c1ccc(O)cc1CNc1nc(-c2cc(F)c(O)cc2CC(F)(F)F)cc2[nH]nc(C(N)=O)c12)S(=O)(=O)c1ccccc1 [Example 42, 6-[5-fluoro-4-hydroxy-2-(2,2,2-trifluoroethyl)phenyl]-4-({5-hydroxy-2-[methyl(phenylsulfonyl)-amino]benzyl}amino)-1H-pyrazolo[4,3-c]pyridine-3-carboxamide]",7.60,6.27,6.63
"CNC(=O)c1n[nH]c2cc(-c3cc(F)c(O)cc3CC(F)(F)F)nc(NCc3nccnc3N(C)S(=O)(=O)c3ccccc3)c12 [Example 44, 6-[5-fluoro-4-hydroxy-2-(2,2,2-trifluoroethyl)phenyl]-N-methyl-4-[({3-[methyl(phenylsulfonyl)amino]pyrazin-2-yl}methyl)amino]-1H-pyrazolo[4,3-c]pyridine-3-carboxamide]",7.59,6.53,6.00
"CNC(=O)c1n[nH]c2cc(-c3cc(F)c(O)cc3CC(F)(F)F)nc(NCc3cccnc3N(C)S(C)(=O)=O)c12 [Example 53, 6-[5-fluoro-4-hydroxy-2-(2,2,2-trifluoroethyl)phenyl]-N-methyl-4-[({2-[methyl(methylsulfonyl)amino]pyridin-3-yl}methyl)amino]-1H-pyrazolo[4,3-c]pyridine-3-carboxamide]",8.01,6.99,6.61
"CNC(=O)c1n[nH]c2cc(-c3cc(F)c(O)cc3CC(F)(F)F)nc(NCc3ccccc3CS(N)(=O)=O)c12 [Example 64, 6-[5-fluoro-4-hydroxy-2-(2,2,2-trifluoroethyl)phenyl]-N-methyl-4-{[2-(sulfamoylmethyl)benzyl]amino}-1H-pyrazolo[4,3-c]pyridine-3-carboxamide]",8.48,7.43,6.82
"Cc1ccc(N(C)S(C)(=O)=O)c(CNc2nc(-c3cc(F)c(O)cc3CC(F)(F)F)cc3[nH]nc(C(N)=O)c23)c1 [Example 81, 6-[5-fluoro-4-hydroxy-2-(2,2,2-trifluoroethyl)phenyl]-4-({5-methyl-2-[methyl(methylsulfonyl)-amino]benzyl}amino)-1H-pyrazolo[4,3-c]pyridine-3-carboxamide]",8.33,6.99,6.53
"CCN(c1ccccc1CNc1nc(-c2cc(F)c(O)cc2CC(F)(F)F)cc2[nH]nc(C(N)=O)c12)S(=O)(=O)CC [Example 82, 4-((2-(N-ethylethylsulfonamido)benzyl)amino)-6-(5-fluoro-4-hydroxy-2-(2,2,2-trifluoroethyl)phenyl)-1H-pyrazolo[4,3-c]pyridine-3-carboxamide]",7.86,6.50,6.92
"CN(c1ccccc1CNc1nc(-c2cc(F)c(O)cc2CC(F)(F)F)nc2[nH]nc(C(N)=O)c12)S(C)(=O)=O [Example 98, 6-(5-Fluoro-4-hydroxy-2-(2,2,2-trifluoroethyl)phenyl)-4-((2-(N-methylmethylsulfonamido)benzyl)amino)-1H-pyrazolo[3,4-d]pyrimidine-3-carboxamide]",8.31,7.40,6.22
"CS(=O)(=O)N(CCO)c1ccccc1CNc1nc(-c2cc(F)c(O)cc2CC(F)(F)F)nc2[nH]nc(C(N)=O)c12 [Example 101, 6-(5-fluoro-4-hydroxy-2-(2,2,2-trifluoroethyl)phenyl)-4-((2-(N-(2-hydroxyethyl)methylsulfonamido)benzyl)amino)-1H-pyrazolo[3,4-d]pyrimidine-3-carboxamide]",7.98,7.29,–
"CCc1cc(O)ccc1-c1cc2[nH]ncc2c(NCc2ccccc2N(C)S(C)(=O)=O)n1 [Example 125, N-[2-({[6-(2-Ethyl-4-hydroxyphenyl)-1H-pyrazolo[4,3-c]pyridin-4-yl]amino}methyl)phenyl]-N-methylmethanesulfonamide hydrochloride]",9.70,8.36,8.25
"CCc1cc(O)c(F)cc1-c1cc2[nH]ncc2c(N(CCc2ccc(OC)c(OC)c2)Cc2ccccc2N(C)S(C)(=O)=O)n1 [Example 129, N-[2-({[2-(3,4-dimethoxyphenyl)ethyl][6-(2-ethyl-5-fluoro-4-hydroxyphenyl)-1H-pyrazolo[4,3-c]pyridin-4-yl]amino}methyl)phenyl]-N-methylmethanesulfonamide hydrochloride]",7.94,6.74,7.25
"Oc1cc(CC(F)(F)F)c(-c2nc(NCC3CC3)c3cn[nH]c3n2)cc1F [Example 151, 4-{4-[(cyclopropylmethyl)-amino]-1H-pyrazolo[3,4-d]pyrimidin-6-yl}-2-fluoro-5-(2,2,2-trifluoroethyl)phenol]",7.47,6.90,5.53
"CCCCNc1nc(-c2cc(F)c(O)cc2CC(F)(F)F)nc2[nH]ncc12 [Example 154, 4-[4-(butylamino)-1H-pyrazolo[3,4-d]pyrimidin-6-yl]-2-fluoro-5-(2,2,2-trifluoroethyl)phenol]",7.11,6.64,5.29
"CN(c1ccc(O)cc1CNc1nc(-c2cc(F)c(O)cc2CC(F)(F)F)nc2[nH]nc(-c3nnc(C4CCN(C(N)=O)CC4)[nH]3)c12)S(C)(=O)=O [Example 167, 4-(5-{6-[5-Fluoro-4-hydroxy-2-(2,2,2-trifluoroethyl)phenyl]-4-({5-hydroxy-2-[methyl(methylsulfonyl)amino]benzyl}amino)-1H-pyrazolo[3,4-d]pyrimidin-3-yl}-4H-1,2,4-triazol-3-yl)piperidine-1-carboxamide]",8.39,7.32,6.51
"N-benzyl-2-[6-(2-ethyl-4-hydroxyphenyl)-1H-pyrazolo[4,3-c]pyridin-4-yl]-1,2,3,4-tetrahydroiso-quinoline-5-carboxamide formate [Example 117]",–,7.38,6.37
